EP1618784A1, “AQUEOUS AGRICULTURAL-CHEMICAL SUSPENSION COMPOSITION” (KUMIAI CHEMICAL INDUSTRY CO., LTD., priority 2003, dated 2004)
Where a name gives a salt, the structure may show the parent alone. Read-outs that look alike come from different tables or passages of the source.

Columns and labels:
[1] = cited from earlier work
[2] = Solubility of the agrochemically active ingredient in the aqueous solution of water-soluble compound (B); type: physicochemical
Protocol: While the method for measuring the solubility of the agrochemically active ingredient as the component (A) in the aqueous solution of the water-soluble compound as the component (B) is not particularly limitative, the method contains, for example, adding an excess amount of the agrochemically active ingredient in an aqueous solution in which given quantities of the water-soluble compound are dissolved in water, filtering the solution with a membrane filter after stirring at room temperature for several hours, and analyzing the concentration in the filtrate according to an analysis method of the respective agrochemically active ingredients to calculate the solubility. The concentrations of the water-soluble compounds for allowing the solubility of the respective agrochemically active ingredients to be smaller than 2 g/100 ml are determined in the invention by preparing aqueous solutions with different concentrations of variety of the component (B) such as an inorganic acid, the specified organic acid and alkali metal salt and ammonium salt thereof and by measuring the solubility of the agrochemically active ingredient in each aqueous solution.

For `Oc1cccc2cccnc12` [8-hydroxyquinoline sulfate, bis(8-hydroxyquinolinium)sulfate], the solubility in water ([1]; 20 °C, pure water) is listed as 30 g/100 ml.
For `Cc1cc(Cl)ccc1OCC(=O)[O-].[Na+]` [MCPA-sodium, sodium (4-chloro-2-methylphenoxy)acetate], the solubility in water ([1]; water) is listed as 27 g/100 ml.
In the case of `COC(=O)NS(=O)(=O)c1ccc(N)cc1.[Ca]` [asulam-calcium, calcium methyl sulfanilylcarbamate], the solubility in water ([1]; 20 °C, pure water) is given as 20 g/100 ml.
For `COc1cc(OC)nc(Oc2cccc(Oc3nc(OC)cc(OC)n3)c2C(=O)[O-])n1.[Na+]` [bispyribac-sodium, sodium 2,6-bis(4,6-dimethoxypyrimidin-2-yloxy)benzoate], the solubility ([2]; aqueous ammonium hydrogencarbonate, 3.1 parts ammonium hydrogencarbonate in 75.4 parts water (Example 4)) was 9000 µg/mL, the solubility ([2]; aqueous sodium chloride, 3.1 parts sodium chloride in 75.4 parts water (Example 3)) was 6000 µg/mL and the solubility ([2]; aqueous sodium hydrogencarbonate/sodium carbonate, 1.4 parts sodium hydrogencarbonate and 0.16 part sodium carbonate in 76.94 parts water (Comparative Example 2)) was 30000 µg/mL. The solubility ([2]; aqueous sodium hydrogencarbonate/sodium carbonate, 1.6 parts sodium hydrogencarbonate and 0.18 part sodium carbonate in 46.77 parts water (Example 1)) was 14000 µg/mL, the solubility ([2]; aqueous sodium hydrogencarbonate/sodium carbonate, 3.9 parts sodium hydrogencarbonate and 0.44 part sodium carbonate in 74.16 parts water (Example 2)) was 4000 µg/mL and the solubility in water ([1]; 20 °C, pure water) was 7.3 g/100 ml.
In the case of `COc1cc(OC)nc(Sc2cccc(Cl)c2C(=O)[O-])n1.[Na+]` [pyrithiobac-sodium, sodium 2-chloro-6-(4,6-dimethoxypyrimidin-2-ylthio)benzoate], the solubility in water ([1]; 20 °C, at pH 5) is given as 26.4 g/100 ml.
In the case of `CN/C(=N/CC1CCOC1)N[N+](=O)[O-]` (racemic) [dinotefuran, (EZ)-(RS)-1-methyl-2-nitro-3-(tetrahydro-3-furylmethyl)guanidine], the solubility in water ([1]; 20 °C, pure water) is given as 5.43 g/100 ml.
In the case of `COc1nn(C(=O)NS(=O)(=O)c2ccccc2OC(F)(F)F)c(=O)n1C` [flucarbazone-sodium, 4,5-dihydro-3-methoxy-4-methyl-5-oxo-N-[(2-(trifluoromethoxy)phenylsulfonyl]-1 H-1,2,4-triazole-1-carboxyamidesodium salt], the solubility ([2]; aqueous acetic acid/sodium acetate, 0.23 part acetic acid and 2.8 parts sodium acetate in 73.77 parts water (Example 5)) is listed as 11000 µg/mL and the solubility in water ([1]; 20 °C, pure water) is listed as 4.4 g/100 ml.
In the case of `CCc1c(C(=O)[O-])c(=O)cnn1-c1ccc(Cl)cc1.[K+]` [clofencet-potassium, potassium 2-(4-chlorophenyl)-3-ethyl-2,5-dihydro-5-oxopyridazine-4-carboxylate], the solubility in water ([1]; 20 °C, pure water) is given as “at least 65.5 g/100 ml”.
For `COC(=O)c1ccc(C(F)(F)F)nc1S(=O)(=O)NC(=O)Nc1nc(OC)cc(OC)n1.[Na]` [flupyrsulfuron-methyl-sodium, methyl 2-(4,6-dimethoxypyrimidine-2-ylcarbamoylsulfamoyl)-6-trifluoromethylnicotinate monosodium salt], the solubility in water ([1]; 20 °C, pure water) is given as 6.3 g/100 ml.
